Assay results from US12091402B2 (Avilar Therapeutics, Inc., priority 2021, dated 2024).
Like-named read-outs stand apart in the source and are kept apart here. Where a SMILES comes first, the peptide text is derived from it. Bridges are numbered along the chain shown (N, C = ends). [ ]: non-standard residue; d: D form. Pro(4S-NH2) = N[C@@H]1CN[C@H](C(=O)O)C1; hSer = N[C@@H](CCO)C(=O)O

Target: IgG
Assay: Affinity to IgG by surface plasmon resonance (SPR)
Assay type: binding
Method: Immobilization levels ranging from 1000-1300 resonance units (RU) are obtained. The running buffer is 10 mM HEPES, pH 7.4, 400 mM NaCl, 0.005% P20, […].

[1] = Biacore 8K, 25° C., IgG on CM5 chip, read-out: IgG SPR Binding Kd

Row | Structure (SMILES) | Kd [1] [µM] | Kd (SPR, read-out: IgG KD) [µM]
1 | C#CCCCC(=O)NCCOCCOCCOCCOCCC(=O)N[C@H]1C[C@H]2C(=O)N[C@@H](CC(=O)O)C(=O)N[C@H]3CSSC[C@H](NC(=O)[C@H](Cc4c[nH]c5ccccc45)NC(=O)[C@H](C(C)C)NC(=O)[C@H](CC(C)C)NC(=O)[C@H](CCC(=O)O)NC(=O)CNC(=O)[C@H](CC(C)C)NC(=O)[C@H](Cc4cnc[nH]4)NC(=O)[C@H](Cc4c[nH]c5ccccc45)NC(=O)[C@H](C)NC3=O)C(=O)N[C@@H]([C@@H](C)O)C(=O)N3CCC[C@@H]3C(=O)N2C1 [Intermediate 4] | < 0.1 | < 0.1
2 | CC(C)C[C@@H]1NC(=O)[C@H](Cc2cnc[nH]2)NC(=O)[C@H](Cc2c[nH]c3ccccc23)NC(=O)[C@H](C)NC(=O)[C@@H]2CSSC[C@H](NC(=O)[C@H](Cc3c[nH]c4ccccc34)NC(=O)[C@H](C(C)C)NC(=O)[C@H](CC(C)C)NC(=O)[C@H](CCC(=O)O)NC(=O)CNC1=O)C(=O)N[C@@H]([C@@H](C)O)C(=O)N1CCC[C@@H]1C(=O)N1C[C@@H](N)C[C@H]1C(=O)N[C@@H](CC(=O)O)C(=O)N2 [Intermediate 5] | < 0.1 | –
3 | C#CCCCC(=O)NCCOCCOCCC(=O)N[C@H]1C[C@H]2C(=O)N[C@@H](CC(=O)O)C(=O)N[C@H]3CSSC[C@H](NC(=O)[C@H](Cc4c[nH]c5ccccc45)NC(=O)[C@H](C(C)C)NC(=O)[C@H](CC(C)C)NC(=O)[C@H](CCC(=O)O)NC(=O)CNC(=O)[C@H](CC(C)C)NC(=O)[C@H](Cc4cnc[nH]4)NC(=O)[C@H](Cc4c[nH]c5ccccc45)NC(=O)[C@H](C)NC3=O)C(=O)N[C@@H]([C@@H](C)O)C(=O)N3CCC[C@@H]3C(=O)N2C1 [Intermediate 6] | < 0.1 | –
4 | C#CCCCC(=O)NCCOCCC(=O)N[C@H]1C[C@H]2C(=O)N[C@@H](CC(=O)O)C(=O)N[C@H]3CSSC[C@H](NC(=O)[C@H](Cc4c[nH]c5ccccc45)NC(=O)[C@H](C(C)C)NC(=O)[C@H](CC(C)C)NC(=O)[C@H](CCC(=O)O)NC(=O)CNC(=O)[C@H](CC(C)C)NC(=O)[C@H](Cc4cnc[nH]4)NC(=O)[C@H](Cc4c[nH]c5ccccc45)NC(=O)[C@H](C)NC3=O)C(=O)N[C@@H]([C@@H](C)O)C(=O)N3CCC[C@@H]3C(=O)N2C1 [Intermediate 7] | < 0.1 | –
5 | C#CCCCC(=O)N[C@H]1C[C@H]2C(=O)N[C@@H](CC(=O)O)C(=O)N[C@H]3CSSC[C@H](NC(=O)[C@H](Cc4c[nH]c5ccccc45)NC(=O)[C@H](C(C)C)NC(=O)[C@H](CC(C)C)NC(=O)[C@H](CCC(=O)O)NC(=O)CNC(=O)[C@H](CC(C)C)NC(=O)[C@H](Cc4cnc[nH]4)NC(=O)[C@H](Cc4c[nH]c5ccccc45)NC(=O)[C@H](C)NC3=O)C(=O)N[C@@H]([C@@H](C)O)C(=O)N3CCC[C@@H]3C(=O)N2C1 [Intermediate 8] | – | < 0.1
6 | C#CCCCC(=O)NCCOCCOCCOCCC(=O)N[C@H]1C[C@H]2C(=O)N[C@@H](CC(=O)O)C(=O)N[C@H]3CSSC[C@H](NC(=O)[C@H](Cc4c[nH]c5ccccc45)NC(=O)[C@H](C(C)C)NC(=O)[C@H](CC(C)C)NC(=O)[C@H](CCC(=O)O)NC(=O)CNC(=O)[C@H](CC(C)C)NC(=O)[C@H](Cc4cnc[nH]4)NC(=O)[C@H](Cc4c[nH]c5ccccc45)NC(=O)[C@H](C)NC3=O)C(=O)N[C@@H]([C@@H](C)O)C(=O)N3CCC[C@@H]3C(=O)N2C1 [Intermediate 9] | < 0.1 | –
7 | CC(C)C[C@@H]1NC(=O)[C@H](Cc2cnc[nH]2)NC(=O)[C@H](Cc2c[nH]c3ccccc23)NC(=O)[C@H](C)NC(=O)[C@@H]2CSSC[C@H](NC(=O)[C@H](Cc3c[nH]c4ccccc34)NC(=O)[C@H](C(C)C)NC(=O)[C@H](CC(C)C)NC(=O)[C@H](CCC(=O)O)NC(=O)CNC1=O)C(=O)N[C@@H]([C@@H](C)O)C(=O)N1CCC[C@@H]1C(=O)N1C[C@@H](N)C[C@H]1C(=O)N[C@@H](C)C(=O)N2 [Intermediate 12] | < 0.1 | < 0.1
8 | CC(C)C[C@@H]1NC(=O)[C@H](Cc2cnc[nH]2)NC(=O)[C@H](Cc2c[nH]c3ccccc23)NC(=O)[C@H](C)NC(=O)[C@@H]2CSSC[C@H](NC(=O)[C@H](Cc3c[nH]c4ccccc34)NC(=O)[C@H](C(C)C)NC(=O)[C@H](CC(C)C)NC(=O)[C@H](CCC(=O)O)NC(=O)CNC1=O)C(=O)N[C@@H]([C@@H](C)O)C(=O)N1CCC[C@@H]1C(=O)N1C[C@@H](N)C[C@H]1C(=O)N[C@@H](CC(N)=O)C(=O)N2 [Intermediate 13] (cyclo(AWHLGELVWCT[dP][Pro(4S-NH2)]NC); disulfide 10-15) | < 0.1 | < 0.1
9 | CC(C)C[C@@H]1NC(=O)[C@H](C)NC(=O)CNC(=O)[C@H](CC(C)C)NC(=O)[C@H](Cc2cnc[nH]2)NC(=O)[C@H](Cc2c[nH]c3ccccc23)NC(=O)[C@H](C)NC(=O)[C@@H]2CSSC[C@H](NC(=O)[C@H](Cc3c[nH]c4ccccc34)NC(=O)[C@H](C(C)C)NC1=O)C(=O)N[C@@H]([C@@H](C)O)C(=O)N1CCC[C@@H]1C(=O)N1C[C@@H](N)C[C@H]1C(=O)N[C@@H](CC(=O)O)C(=O)N2 [Intermediate 17] (cyclo(ALVWCT[dP][Pro(4S-NH2)]DCAWHLG); disulfide 5-10) | < 0.1 | < 0.1
10 | CC(C)C[C@@H]1NC(=O)[C@H](Cc2cnc[nH]2)NC(=O)[C@H](Cc2c[nH]c3ccccc23)NC(=O)[C@H](C)NC(=O)[C@@H]2CSSC[C@H](NC(=O)[C@H](Cc3c[nH]c4ccccc34)NC(=O)[C@H](C(C)C)NC(=O)[C@H](CC(C)C)NC(=O)[C@H](CCC(N)=O)NC(=O)CNC1=O)C(=O)N[C@@H]([C@@H](C)O)C(=O)N1CCC[C@@H]1C(=O)N1C[C@@H](N)C[C@H]1C(=O)N[C@@H](CC(=O)O)C(=O)N2 [Intermediate 18] (cyclo(AWHLGQLVWCT[dP][Pro(4S-NH2)]DC); disulfide 10-15) | < 0.1 | < 0.1
11 | CC(C)C[C@@H]1NC(=O)[C@H](Cc2cnc[nH]2)NC(=O)[C@H](Cc2c[nH]c3ccccc23)NC(=O)[C@H](C)NC(=O)[C@@H]2CSSC[C@H](NC(=O)[C@H](Cc3c[nH]c4cc(Cl)ccc34)NC(=O)[C@H](C(C)C)NC(=O)[C@H](CC(C)C)NC(=O)[C@H](CCC(=O)O)NC(=O)CNC1=O)C(=O)N[C@@H]([C@@H](C)O)C(=O)N1CCC[C@@H]1C(=O)N1C[C@@H](N)C[C@H]1C(=O)N[C@@H](CC(=O)O)C(=O)N2 [Intermediate 19] | < 0.1 | < 0.1
12 | CC(C)C[C@@H]1NC(=O)[C@H](Cc2cnc[nH]2)NC(=O)[C@H](Cc2c[nH]c3ccccc23)NC(=O)[C@H](CCO)NC(=O)[C@@H]2CSSC[C@H](NC(=O)[C@H](Cc3c[nH]c4ccccc34)NC(=O)[C@H](C(C)C)NC(=O)[C@H](CC(C)C)NC(=O)[C@H](CCC(=O)O)NC(=O)CNC1=O)C(=O)N[C@@H]([C@@H](C)O)C(=O)N1CCC[C@@H]1C(=O)N1C[C@@H](N)C[C@H]1C(=O)N[C@@H](CC(=O)O)C(=O)N2 [Intermediate 21] (cyclo(CT[dP][Pro(4S-NH2)]DC[hSer]WHLGELVW); disulfide 1-6) | < 0.1 | < 0.1
13 | CNC(=O)CC[C@@H]1NC(=O)CNC(=O)[C@H](CC(C)C)NC(=O)[C@H](Cc2cnc[nH]2)NC(=O)[C@H](Cc2c[nH]c3ccccc23)NC(=O)[C@H](C)NC(=O)[C@@H]2CSSC[C@H](NC(=O)[C@H](Cc3c[nH]c4ccccc34)NC(=O)[C@H](C(C)C)NC(=O)[C@H](CC(C)C)NC1=O)C(=O)N[C@@H]([C@@H](C)O)C(=O)N1CCC[C@@H]1C(=O)N1C[C@@H](N)C[C@H]1C(=O)N[C@@H](CC(=O)O)C(=O)N2 [Intermediate 22] | < 0.1 | < 0.1
